Test results as given in EP3502102A1, “STING INHIBITORS” (ECOLE POLYTECHNIQUE FEDERALE DE LAUSANNE (EPFL), priority 2017, dated 2019).

What was measured:
[1] = molecular target: T1, endogenous human transferrin receptor (Homo sapiens, UniProt P02786); experiment: Metabolic labelling with [3H] palmitate, endogenous transferrin receptor; assay type: cell-based; details: 1 µM
T1 construct: endogenous in cells; host or cells: HEK293T

STING [2] = molecular target: T2, STING (Mus musculus, UniProt Q3TBT3); experiment: High-throughput screen and secondary screen in HEK293T cells expressing mCherry-STING, cdG-Syn versus RIG-I; assay type: cell-based; parameters: expressed in transfected cells; host or cells: HEK293T; details: primary screen and counter-screen; library compounds 10 µM
T2 sequence (Q3TBT3 1-378): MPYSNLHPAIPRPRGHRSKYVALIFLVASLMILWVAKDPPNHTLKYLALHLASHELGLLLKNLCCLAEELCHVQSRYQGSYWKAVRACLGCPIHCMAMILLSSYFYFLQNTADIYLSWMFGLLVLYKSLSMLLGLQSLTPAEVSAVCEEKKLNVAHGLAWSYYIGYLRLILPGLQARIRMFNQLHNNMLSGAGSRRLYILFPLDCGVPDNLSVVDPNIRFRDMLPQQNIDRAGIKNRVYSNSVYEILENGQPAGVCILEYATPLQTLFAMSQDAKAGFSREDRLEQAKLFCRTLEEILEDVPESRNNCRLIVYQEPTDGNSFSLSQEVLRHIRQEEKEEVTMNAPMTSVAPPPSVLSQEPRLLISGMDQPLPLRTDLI
Description: Reporter activity was measured 16 h after compound treatment. A nonlinear regression analysis was performed. […] Circles indicate substitutes compared to C-176. d, e, Chemical compounds from ([…]) in conjunction with IFN-• luciferase reporter, respectively. b, e, f, Values of inhibitor-treated cells were normalized to DMSO-treated cells. […] Cytokine levels were normalized to DMSO-treated control cells. A nonlinear regression analysis was performed for cGAMP stimulation. b, c, BMDMs were pre-treated with C-178 (0.25 µM) and stimulated with cGAMP, cyclic di-GMP, CMA, 90mer dsDNA or LPS for 3 h. The induction of Ifnb1 mRNA levels was assessed by RT-qPCR. d, Heatmaps of RNA sequencing analysis of BMDMs treated with DMSO or CMA and with or without addition of C-178. […] Reporter activity was measured 16 h after transfection and values were normalized to DMSO-treated control cells. c, BMDMs were treated with C-178 (0.25 µM) for 1 h, washed or left untreated and after an additional hour stimulated with cGAMP. […] Flag-STING was immunoprecipitated from whole cell lysate and analysed by autoradiography. In parallel, cell lysates were analysed by immunoblotting for p-TBK1 and STING. d, HEK293T cells expressing STING were treated as indicated (C-178 (1 µM)) and stimulated with CMA for 1.5 h. […] Depicted genes were measured by RT-qPCR.

STING [3] = molecular target: T2, STING; experiment: CMA-induced serum cytokines in mice; assay type: in vivo, C57BL/6 mice; parameters: tissue Jackson Laboratories 000664; host or cells: whole animal, C57BL/6J mice; details: pre-treated 1 h or 4 h before i.p. CMA; serum 4 h later
STING [4] = molecular target: T2, STING; experiment: IFN-beta luciferase reporter in HEK293T cells transfected with STING, alone or with a cyclic dinucleotide synthase; assay type: cell-based; parameters: expressed in transfected cells; host or cells: HEK293T; details: wild-type HEK293T; STING expressed alone or in conjunction with cdG-Syn; 0.01-5µM; 16 h
Description: Reporter activity was measured 16 h after compound treatment. A nonlinear regression analysis was performed. […] Cytokine levels were normalized to DMSO-treated control cells. […] Nuclei were stained with DAPI. […] Depicted genes were measured by RT-qPCR. […] 16 h later Luciferase activity was measured. […] Flag-STING was immunoprecipitated and analysed by autoradiography.
HEK293T cells expressing murine STING with an N-terminal mCherry-tag ^28 were transfected using GeneJuice (Millipore) with a construct encoding for cyclic di-GMP synthase in conjunction with an IFN-• firefly luciferase reporter plasmid. 3 h after transfection cells were seeded in […] (Corning) coated with library compounds. For each compounds, a 40 nl volume was selected to obtain a concentration of 10 µM in the assay plates. The amount of DMSO in each well was normalised to 0.1%. After overnight treatment, cells were lysed in lysis buffer (25 mM Tris-phosphate (pH 7.8), 2 mM DTT, 2 mM 1,2-diaminocyclohexane-N,N,N',N'-tetraacetic acid, 10% glycerol, 1% Triton® X-100) for 20 min followed by the addition of firefly luciferase. Reporter activity was measured using a Tecan Infinite plate reader. The screen was performed using on ∼ 20.000 compounds from a chemically diverse compound collection available at the BSF core facility at EPFL.
In these cells, transient transfection of vectors encoding for cyclic di-GMP synthase (cdG-Syn) and an IFN-• reporter leads to robust induction of firefly luciferase activity. We used this system to perform a high-throughput chemical screen with a library of ∼ 20.000 small molecule compounds (Fig. 6b). To increase the selectivity of candidate compounds against the STING pathway, hits from the primary screen were counter-screened for their effect on RIG-I-driven activation of the IFN-• reporter. […] To further validate the two small molecules, we treated wild-type HEK293T cells with C-178 and C-176, in which STING was either expressed alone or in conjunction with cdG-Syn. […] We next conducted a limited structure-activity relationship (SAR) analysis. Since both C-178 and C-176 share a characteristic nitrofuran moiety, we prepared analogues of C-176/8 in which this structural motif was substituted (Fig. 1c).

T1 sequence (P02786 whole entry): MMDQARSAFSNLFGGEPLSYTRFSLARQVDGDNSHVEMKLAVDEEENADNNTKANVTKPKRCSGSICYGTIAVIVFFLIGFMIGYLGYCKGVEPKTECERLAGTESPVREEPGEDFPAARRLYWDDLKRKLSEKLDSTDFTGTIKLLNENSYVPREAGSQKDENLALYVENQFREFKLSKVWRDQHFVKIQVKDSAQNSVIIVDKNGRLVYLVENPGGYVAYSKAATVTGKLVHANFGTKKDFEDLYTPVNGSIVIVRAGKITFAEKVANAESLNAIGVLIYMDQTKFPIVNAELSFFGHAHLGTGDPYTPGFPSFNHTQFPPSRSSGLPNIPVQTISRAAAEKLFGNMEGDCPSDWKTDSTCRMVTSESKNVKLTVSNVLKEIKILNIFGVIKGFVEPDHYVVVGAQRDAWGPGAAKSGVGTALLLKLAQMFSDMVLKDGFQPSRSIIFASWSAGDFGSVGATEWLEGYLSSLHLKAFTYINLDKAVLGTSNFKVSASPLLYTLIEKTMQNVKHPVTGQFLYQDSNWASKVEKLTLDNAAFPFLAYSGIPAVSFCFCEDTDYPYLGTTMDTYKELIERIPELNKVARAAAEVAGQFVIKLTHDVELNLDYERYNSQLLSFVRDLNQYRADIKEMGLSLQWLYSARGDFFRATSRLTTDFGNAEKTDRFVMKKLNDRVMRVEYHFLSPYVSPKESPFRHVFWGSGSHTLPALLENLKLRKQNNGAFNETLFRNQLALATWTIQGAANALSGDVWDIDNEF

SMILES: O=C(Nc1ccc(I)cc1)c1ccc([N+](=O)[O-])o1 [C-176, N-(4-iodophenyl)-5-nitro-2-furamide]
- [^3H] palmitate labelling of the endogenous transferrin receptor [1]: neither C-178 nor C-176 affected
- IFN signal in response to cdG-Syn/STING versus RIG-I (STING [2]): selectively reduced the IFN signal in response to cdG-Syn/STING but not to RIG-I
- increase in serum concentration of IL-6 (STING [3]): completely abrogated
- increase in serum concentration of type I IFNs (STING [3]): completely abrogated
- half-maximal inhibitory concentration (IC50) values, IFN-• reporter activity (STING [4]): nanomolar
